Measurements as given in paper PMC12833730, “Discovery of a First‐in‐Class Covalent Allosteric SHP1 Inhibitor with Immunotherapeutic Activity” (Angewandte Chemie (International Ed. in English), 2025).

Key:
Experiment in all cases: PTP panel IC50, 60-min preincubation
Assay type in all cases: biochemical
TCPTP = molecular target: T1, TCPTP (Homo sapiens, UniProt P17706)
T1 construct: TC-PTP, residues 1-387; made in house; host or cells: E. coli BL21(DE3)
Text: (§1) Building on the results from the SAR “by‐catalog” study, the following medicinal chemistry effort was prioritized on a systematic survey of the central phenyl scaffold, the sulfonamide linker, and the distal aryl moiety with the goal of a multiparameter optimization of potency and selectivity for SHP1 inhibition as well as drug‐like properties such as aqueous solubility and cell permeability. Additionally, given the crucial requirement for targeted covalent inhibitors to maintain tempered reactivity that enables selective target engagement and reduces cross‐reactivity to by‐standing nucleophiles in the cellular milieu,^[ [74], [75] ^] the medicinal chemistry campaign also sought to lower SHP1 covalent inhibitor reactivity with GSH and cytotoxicity. Careful assessment and evaluation of the SAR and other desirable drug‐like attributes of all synthesized molecules led to the identification of M029 (Figure 2a and Figure S2D, manuscript in preparation). […] To determine the selectivity of M029 for SHP1, we measured the IC50 value for M029‐mediated inhibition of a number of PTPs after a 60‐min preincubation. […] To assess potential direct interactions between SHP1 and M029, we utilized the thermal shift assay to measure the thermal stability of SHP1 in the presence of M029. […] To corroborate the covalent interaction between SHP1 and M029, a single SHP1‐M029 covalent adduct was observed by electrospray protein mass spectrometry when SHP1 was incubated with M029 (Figure 2e). […] This is in line with the expectation that SHP1 inactivation by M029 occurs through nucleophilic substitution of the chlorine from the chloroacetamide warhead.
(§2) To further confirm the time-dependent inhibition and determine the IC50 of acquired hits, repurchased compounds from Enamine were serially diluted in a 96-well plate, followed by the addition of proteins at 200 nM. After 10-minute and 60-minute preincubation, 2 µL of the mixture was transferred into 100 µM 6,8-Difluoro-4-Methylumbelliferyl Phosphate (DiFMUP, Invitrogen, cat# D6567) at a final volume of 200 µL. The reaction was allowed to proceed for 5 minutes and quenched by the addition of 40 µl of a 160 µM solution of bpV(Phen) (Sigma-Aldrich, cat# SML0889). The fluorescence signal was measured using a CLARIOstar Plus Microplate Spectrophotometer (BMG Labtech) using excitation and emission wavelengths of 340 nm and 450 nm, respectively. Data were fitted using Prism GraphPad 10.1.1.

CDC14A = molecular target: T2, CDC14A (Homo sapiens, UniProt Q9UNH5)
T2 construct: CDC14A, residues 1-413; made in house; host or cells: E. coli BL21(DE3)
T2 sequence (Q9UNH5 1-413, species assumed): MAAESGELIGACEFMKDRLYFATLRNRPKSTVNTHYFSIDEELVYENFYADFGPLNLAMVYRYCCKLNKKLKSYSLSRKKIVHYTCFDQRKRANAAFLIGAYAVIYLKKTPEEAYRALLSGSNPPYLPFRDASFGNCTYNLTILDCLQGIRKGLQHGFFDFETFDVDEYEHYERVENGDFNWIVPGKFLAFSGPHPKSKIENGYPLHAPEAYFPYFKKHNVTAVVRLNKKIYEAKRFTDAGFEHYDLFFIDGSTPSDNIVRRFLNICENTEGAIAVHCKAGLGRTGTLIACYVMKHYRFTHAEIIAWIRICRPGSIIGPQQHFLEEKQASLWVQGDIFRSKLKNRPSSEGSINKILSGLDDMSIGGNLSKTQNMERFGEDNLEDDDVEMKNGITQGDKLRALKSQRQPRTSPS
Text: as §1, §2

MKP5 = molecular target: T3, MKP5 (Homo sapiens, UniProt Q9Y6W6)
T3 construct: MKP5, residues 320-647; made in house; host or cells: E. coli BL21(DE3)
T3 sequence (Q9Y6W6 320-467 limits assumed, species assumed): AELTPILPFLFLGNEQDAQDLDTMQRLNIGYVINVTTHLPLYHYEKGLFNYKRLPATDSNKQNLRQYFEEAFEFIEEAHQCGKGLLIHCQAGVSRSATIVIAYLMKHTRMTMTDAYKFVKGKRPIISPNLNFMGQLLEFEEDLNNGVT
Text: as §1, §2

STEP = molecular target: T4, STEP (Homo sapiens, UniProt P54829)
T4 construct: STEP, residues 258-539; made in house; host or cells: E. coli BL21(DE3)
T4 sequence (P54829 282-563, species assumed): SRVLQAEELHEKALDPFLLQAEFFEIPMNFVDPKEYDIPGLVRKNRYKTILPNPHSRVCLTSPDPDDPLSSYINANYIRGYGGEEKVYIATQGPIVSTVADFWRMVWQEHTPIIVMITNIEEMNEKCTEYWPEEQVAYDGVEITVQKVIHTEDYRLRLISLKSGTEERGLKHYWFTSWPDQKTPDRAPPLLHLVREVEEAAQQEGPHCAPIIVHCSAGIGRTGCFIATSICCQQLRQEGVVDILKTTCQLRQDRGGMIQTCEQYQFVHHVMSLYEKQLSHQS
Text: as §1, §2

PEST = molecular target: T5, PEST (Homo sapiens, UniProt Q05209)
T5 construct: PTP-PEST, residues 5-304; made in house; host or cells: E. coli BL21(DE3)
T5 sequence (Q05209 5-304): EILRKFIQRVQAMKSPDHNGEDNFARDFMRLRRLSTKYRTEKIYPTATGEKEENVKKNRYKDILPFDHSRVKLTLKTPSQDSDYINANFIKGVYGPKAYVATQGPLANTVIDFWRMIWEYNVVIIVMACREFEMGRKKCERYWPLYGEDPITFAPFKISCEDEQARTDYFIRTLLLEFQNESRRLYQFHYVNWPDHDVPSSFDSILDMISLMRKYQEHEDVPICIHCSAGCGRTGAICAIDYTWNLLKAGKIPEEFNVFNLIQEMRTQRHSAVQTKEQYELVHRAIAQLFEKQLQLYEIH
Text: as §1, §2

Ssu72 = Ssu72 (Homo sapiens, UniProt Q9NP77)
Text: as §1, §2

FAP1 = molecular target: T6, FAP1 (Homo sapiens, UniProt Q12923)
T6 construct: FAP1, residues 2124-2485; made in house; host or cells: E. coli BL21(DE3)
T6 sequence (Q12923 2124-2485): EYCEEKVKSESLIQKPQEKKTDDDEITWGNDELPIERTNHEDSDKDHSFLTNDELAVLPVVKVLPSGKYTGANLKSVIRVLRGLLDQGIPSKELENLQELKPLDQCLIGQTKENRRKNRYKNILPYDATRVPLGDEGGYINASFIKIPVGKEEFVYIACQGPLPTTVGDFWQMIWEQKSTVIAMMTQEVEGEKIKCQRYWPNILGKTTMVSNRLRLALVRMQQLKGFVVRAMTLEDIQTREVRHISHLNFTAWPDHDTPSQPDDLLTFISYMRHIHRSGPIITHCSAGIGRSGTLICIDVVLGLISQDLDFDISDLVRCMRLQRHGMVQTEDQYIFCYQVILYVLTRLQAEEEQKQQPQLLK
Text: as §1, §2

PP5 = PP5 (Homo sapiens, UniProt P53041)
PP5, sequence (P53041 whole entry): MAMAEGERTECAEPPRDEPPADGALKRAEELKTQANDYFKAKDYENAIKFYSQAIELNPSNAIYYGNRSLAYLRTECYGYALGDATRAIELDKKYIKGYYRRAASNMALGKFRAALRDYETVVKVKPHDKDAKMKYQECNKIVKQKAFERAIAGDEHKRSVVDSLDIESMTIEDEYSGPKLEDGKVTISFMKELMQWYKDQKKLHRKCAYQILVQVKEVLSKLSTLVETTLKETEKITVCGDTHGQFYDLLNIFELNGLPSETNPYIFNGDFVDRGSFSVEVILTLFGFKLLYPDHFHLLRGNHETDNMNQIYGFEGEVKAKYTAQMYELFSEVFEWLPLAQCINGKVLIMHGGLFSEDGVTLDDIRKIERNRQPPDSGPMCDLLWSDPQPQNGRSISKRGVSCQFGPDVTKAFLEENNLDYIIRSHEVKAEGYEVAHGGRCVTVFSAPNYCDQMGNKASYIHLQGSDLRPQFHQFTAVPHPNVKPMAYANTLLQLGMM
Text: as §1, §2

PEZ = PEZ (Homo sapiens, UniProt Q15678)
PEZ, sequence (Q15678 whole entry, species assumed): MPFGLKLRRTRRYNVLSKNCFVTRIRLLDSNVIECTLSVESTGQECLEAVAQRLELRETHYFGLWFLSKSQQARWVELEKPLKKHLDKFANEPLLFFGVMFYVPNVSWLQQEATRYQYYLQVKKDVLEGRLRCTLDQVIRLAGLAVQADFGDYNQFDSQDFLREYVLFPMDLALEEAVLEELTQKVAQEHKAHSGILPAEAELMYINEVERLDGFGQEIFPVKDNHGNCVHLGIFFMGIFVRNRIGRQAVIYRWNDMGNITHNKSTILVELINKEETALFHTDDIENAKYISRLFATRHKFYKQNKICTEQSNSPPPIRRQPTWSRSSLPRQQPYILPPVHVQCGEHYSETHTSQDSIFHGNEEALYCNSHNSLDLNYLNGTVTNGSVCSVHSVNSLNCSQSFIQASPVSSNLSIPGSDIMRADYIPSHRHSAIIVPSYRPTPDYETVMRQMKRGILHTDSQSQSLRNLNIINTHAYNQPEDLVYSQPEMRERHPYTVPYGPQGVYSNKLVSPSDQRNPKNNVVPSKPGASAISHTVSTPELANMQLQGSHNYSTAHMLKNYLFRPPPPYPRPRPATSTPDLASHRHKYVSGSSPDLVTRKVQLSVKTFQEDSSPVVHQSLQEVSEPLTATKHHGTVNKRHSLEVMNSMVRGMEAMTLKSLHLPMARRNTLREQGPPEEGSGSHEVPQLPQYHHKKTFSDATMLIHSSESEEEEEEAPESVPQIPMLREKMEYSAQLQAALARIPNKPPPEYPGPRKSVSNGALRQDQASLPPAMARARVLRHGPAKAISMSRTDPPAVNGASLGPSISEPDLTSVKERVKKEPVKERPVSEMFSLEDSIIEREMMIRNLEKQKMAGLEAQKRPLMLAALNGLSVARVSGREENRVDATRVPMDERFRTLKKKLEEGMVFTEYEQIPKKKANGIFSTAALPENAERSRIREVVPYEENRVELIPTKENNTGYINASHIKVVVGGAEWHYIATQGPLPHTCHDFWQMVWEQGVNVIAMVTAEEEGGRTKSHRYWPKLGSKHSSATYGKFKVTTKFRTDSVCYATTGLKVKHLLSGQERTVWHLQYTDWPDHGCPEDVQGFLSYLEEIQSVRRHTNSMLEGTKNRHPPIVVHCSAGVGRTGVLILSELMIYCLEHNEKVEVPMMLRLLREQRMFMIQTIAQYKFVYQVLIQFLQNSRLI
Text: as §1, §2

HePTP = molecular target: T7, HePTP (Homo sapiens, UniProt P35236)
T7 construct: HePTP, residues 22-360; made in house; host or cells: E. coli BL21(DE3)
T7 sequence (P35236 22-360): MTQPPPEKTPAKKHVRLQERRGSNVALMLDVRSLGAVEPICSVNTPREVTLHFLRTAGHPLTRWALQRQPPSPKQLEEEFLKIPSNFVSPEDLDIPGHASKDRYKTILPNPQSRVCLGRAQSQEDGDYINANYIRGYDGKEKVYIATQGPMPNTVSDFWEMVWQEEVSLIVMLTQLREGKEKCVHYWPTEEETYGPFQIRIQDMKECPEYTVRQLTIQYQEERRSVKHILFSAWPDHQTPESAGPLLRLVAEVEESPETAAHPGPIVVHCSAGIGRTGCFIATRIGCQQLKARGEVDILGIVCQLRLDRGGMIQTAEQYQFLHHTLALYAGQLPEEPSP
Text: as §1, §2

LMPTP = molecular target: T8, LMPTP (Homo sapiens, UniProt P24666)
T8 construct: LMWPTP, residues 1-158; made in house; host or cells: E. coli BL21(DE3)
T8 sequence (P24666 whole entry, the tested form may be a part): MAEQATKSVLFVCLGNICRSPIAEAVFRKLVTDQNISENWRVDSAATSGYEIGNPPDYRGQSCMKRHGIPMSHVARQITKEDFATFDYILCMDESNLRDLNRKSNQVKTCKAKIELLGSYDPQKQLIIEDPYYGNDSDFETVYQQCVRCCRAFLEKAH
Text: as §1, §2

CD45 = molecular target: T9, CD45 (Homo sapiens, UniProt P08575)
T9 construct: CD45, residues 620-1236; made in house; host or cells: E. coli BL21(DE3)
T9 sequence (P08575 620-1236, species assumed): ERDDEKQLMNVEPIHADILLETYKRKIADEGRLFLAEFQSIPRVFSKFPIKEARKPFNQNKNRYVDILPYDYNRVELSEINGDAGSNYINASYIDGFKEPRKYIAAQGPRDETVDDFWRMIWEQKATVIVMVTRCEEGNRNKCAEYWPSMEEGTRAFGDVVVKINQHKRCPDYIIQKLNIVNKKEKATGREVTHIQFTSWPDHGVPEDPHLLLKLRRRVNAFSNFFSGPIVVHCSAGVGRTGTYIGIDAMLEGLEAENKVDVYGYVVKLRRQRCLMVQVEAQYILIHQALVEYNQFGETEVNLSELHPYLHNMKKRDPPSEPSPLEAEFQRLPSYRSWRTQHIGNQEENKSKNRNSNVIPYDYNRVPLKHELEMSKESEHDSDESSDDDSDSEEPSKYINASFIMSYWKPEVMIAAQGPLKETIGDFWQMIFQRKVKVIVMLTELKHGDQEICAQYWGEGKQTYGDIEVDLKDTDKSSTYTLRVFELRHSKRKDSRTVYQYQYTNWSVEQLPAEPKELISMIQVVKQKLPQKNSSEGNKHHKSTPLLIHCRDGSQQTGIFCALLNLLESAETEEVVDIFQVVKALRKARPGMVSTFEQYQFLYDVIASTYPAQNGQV
Text: as §1, §2

VHR = VHR (Homo sapiens, UniProt P51452)
VHR, sequence (P51452 whole entry, species assumed): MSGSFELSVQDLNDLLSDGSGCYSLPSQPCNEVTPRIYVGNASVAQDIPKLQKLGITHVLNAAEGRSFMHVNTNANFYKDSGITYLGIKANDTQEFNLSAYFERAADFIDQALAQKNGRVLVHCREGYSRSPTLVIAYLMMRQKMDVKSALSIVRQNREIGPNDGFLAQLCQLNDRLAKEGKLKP
Text: as §1, §2

T1 sequence (P17706 1-387 isoform P17706-2): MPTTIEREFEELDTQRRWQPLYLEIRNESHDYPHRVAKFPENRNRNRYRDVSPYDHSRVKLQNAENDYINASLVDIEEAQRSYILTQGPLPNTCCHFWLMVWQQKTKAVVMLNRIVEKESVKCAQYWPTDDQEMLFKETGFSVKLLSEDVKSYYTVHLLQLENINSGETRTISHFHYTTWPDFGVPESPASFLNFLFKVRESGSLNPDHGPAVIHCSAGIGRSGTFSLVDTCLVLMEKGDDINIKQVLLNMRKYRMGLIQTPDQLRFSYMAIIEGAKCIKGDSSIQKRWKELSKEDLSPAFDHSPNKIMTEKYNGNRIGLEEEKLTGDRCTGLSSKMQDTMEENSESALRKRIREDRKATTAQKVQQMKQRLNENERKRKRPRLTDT

## N#Cc1ccsc1NS(=O)(=O)c1ccc(NC(=O)CCl)cc1 [M029, 2-Chloro-N-(4-(N-(3-cyanothiophen-2-yl)sulfamoyl)phenyl)acetamide]
TCPTP
  IC50: 150 ± 31.1 µM
CDC14A
  IC50: > 200 µM
MKP5
  IC50: 165 ± 20.1 µM
STEP
  IC50: > 200 µM
PEST
  IC50: > 200 µM
Ssu72
  IC50: > 200 µM
FAP1
  IC50: > 200 µM
PP5
  IC50: > 200 µM
PEZ
  IC50: 172 ± 19.3 µM
HePTP
  IC50: > 200 µM
LMPTP
  IC50: > 200 µM
CD45
  IC50: 139 ± 38.5 µM
VHR
  IC50: 180 ± 46.8 µM
